Source: PubChem BioAssay AID1963860 (Molecular Pharmacology Branch, DTP, NCI, 2024)

Tested on: CN0375-F725-PDC KRAS spheroid viability
Assay: Anticancer human tumor CN0375-F725-PDC patient-derived colon carcinoma cell line growth inhibition [KRAS2]
Conditions: spheroids with HUVEC and MSC; for viability, T/C: stronger effect = lower value
Procedure, shortened: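 Combination screen of spheroid viability in tumor-cell co-cultures with endothelial (HUVEC) and mesenchymal stem cell stroma. Each agent was tested in half-log dilutions, topping at clinical Cmax or at 10 microM without a known Cmax.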

[1] = curve of first compound, second compound 0.1 µM
[2] = curve of first compound, second compound 0.316 µM
[3] = curve of first compound, second compound 1 µM
[4] = curve of first compound, second compound 3.16 µM
[5] = curve of first compound, second compound 10 µM
[6] = second compound 0.1 µM, first compound 0.0316 µM
[7] = second compound 0.1 µM, first compound 0.1 µM
[8] = second compound 0.1 µM, first compound 0.316 µM
[9] = second compound 0.1 µM, first compound 1 µM
[10] = second compound 0.1 µM, first compound 3.16 µM
[11] = second compound 0.1 µM, first compound 10 µM
[12] = second compound 0.316 µM, first compound 0.0316 µM
[13] = second compound 0.316 µM, first compound 0.1 µM
[14] = second compound 0.316 µM, first compound 0.316 µM
[15] = second compound 0.316 µM, first compound 1 µM
[16] = second compound 0.316 µM, first compound 3.16 µM
[17] = second compound 0.316 µM, first compound 10 µM
[18] = second compound 1 µM, first compound 0.0316 µM
[19] = second compound 1 µM, first compound 0.1 µM
[20] = second compound 1 µM, first compound 0.316 µM
[21] = second compound 1 µM, first compound 1 µM
[22] = second compound 1 µM, first compound 3.16 µM
[23] = second compound 1 µM, first compound 10 µM
[24] = second compound 3.16 µM, first compound 0.0316 µM
[25] = second compound 3.16 µM, first compound 0.1 µM
[26] = second compound 3.16 µM, first compound 0.316 µM
[27] = second compound 3.16 µM, first compound 1 µM
[28] = second compound 3.16 µM, first compound 3.16 µM
[29] = second compound 3.16 µM, first compound 10 µM
[30] = second compound 10 µM, first compound 0.0316 µM
[31] = second compound 10 µM, first compound 0.1 µM
[32] = second compound 10 µM, first compound 0.316 µM
[33] = second compound 10 µM, first compound 1 µM
[34] = curve of first compound, second compound 0.0316 µM
[35] = second compound 0.0316 µM, first compound 0.0316 µM
[36] = second compound 0.0316 µM, first compound 0.1 µM
[37] = second compound 0.0316 µM, first compound 0.316 µM
[38] = second compound 0.0316 µM, first compound 1 µM
[39] = second compound 0.0316 µM, first compound 3.16 µM
[40] = second compound 0.1 µM, first compound 0.01 µM
[41] = second compound 0.316 µM, first compound 0.01 µM
[42] = second compound 1 µM, first compound 0.01 µM
[43] = second compound 3.16 µM, first compound 0.01 µM
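Further: spheroids exposed to agents for 7 days.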

SMILES	IC50 [1]	IC50 [2]	IC50 [3]	IC50 [4]	viability, T/C [6]	viability, T/C [7]	viability, T/C [8]	viability, T/C [9]	viability, T/C [12]	viability, T/C [13]	viability, T/C [14]	viability, T/C [15]	viability, T/C [18]	viability, T/C [19]	viability, T/C [20]	viability, T/C [21]	viability, T/C [24]	viability, T/C [25]	viability, T/C [26]	viability, T/C [27]	also measured
CC1OCC2(CCN(c3cnc(Sc4ccnc(N)c4Cl)c(N)n3)CC2)C1N (centres undefined) + C=CC(=O)N1CCN(c2nc(=O)n(-c3c(C)ccnc3C(C)C)c3nc(-c4c(O)cccc4F)c(F)cc23)C(C)C1	> 10 µM	> 10 µM	> 10 µM	> 10 µM	102%	86.4%	82.5%	79.1%	98.8%	85.5%	78.3%	79.9%	96.3%	99.3%	86.3%	82.9%	104%	92.4%	81.4%	81%	IC50 [5]: > 10 µM; viability, T/C [10]: 77.2%; viability, T/C [11]: 63.6%; viability, T/C [16]: 77.5%; viability, T/C [17]: 59.8%; viability, T/C [22]: 75.2%; viability, T/C [23]: 65.6%; viability, T/C [28]: 71.6%; viability, T/C [29]: 65.6%; viability, T/C [30]: 94%; viability, T/C [31]: 92.2%; viability, T/C [32]: 77.9%; viability, T/C [33]: 66.3%; viability, T/C (second compound 10 µM, first compound 3.16 µM): 61.8%; viability, T/C (second compound 10 µM, first compound 10 µM): 49.6%
Cn1nccc1Nc1nccc(-c2cc3c(s2)C(C)(C)N(CCN2CCOCC2)C3=O)n1 + C=CC(=O)N1CCN(c2nc(OCC3CCCN3C)nc3c2CCN(c2cccc4cccc(C)c24)C3)CC1CC#N	2.98 µM	2.23 µM	0.739 µM	< 0.0316 µM	95.7%	93.4%	77.2%	63.4%	91.5%	91.3%	70.3%	60.3%	87.6%	82.8%	52.4%	47%	27.7%	24.3%	11.9%	7.82%	IC50 [34]: 3.93 µM; viability, T/C [35]: 100%; viability, T/C [36]: 97.3%; viability, T/C [37]: 76.9%; viability, T/C [38]: 68.9%; viability, T/C [39]: 52.7%; viability, T/C (second compound 0.0316 µM, first compound 10 µM): 39%; viability, T/C [10]: 50.4%; viability, T/C [11]: 39.7%; viability, T/C [16]: 46.9%; viability, T/C [17]: 38%; viability, T/C [22]: 39.1%; viability, T/C [23]: 23.1%; viability, T/C [28]: 5.81%; viability, T/C [29]: 2.15%
CC(=O)OC12COC1CC(O)C1(C)C(=O)C(O)C3=C(C)C(OC(=O)C(O)C(NC(=O)OC(C)(C)C)c4ccccc4)CC(O)(C(OC(=O)c4ccccc4)C21)C3(C)C (centres undefined) + C=CC(=O)N1CCN(c2nc(OCC3CCCN3C)nc3c2CCN(c2cccc4cccc(C)c24)C3)CC1CC#N	> 3.16 µM	> 3.16 µM	> 3.16 µM	> 3.16 µM	102%	86.3%	87%	79.5%	100%	87.3%	85.2%	79.3%	91.8%	91.6%	78.8%	78.6%	98.9%	93.7%	83.5%	88.3%	IC50 [34]: > 3.16 µM; viability, T/C (second compound 0.0316 µM, first compound 0.01 µM): 99.3%; viability, T/C [35]: 99.2%; viability, T/C [36]: 87.2%; viability, T/C [37]: 82.5%; viability, T/C [38]: 81.8%; viability, T/C [39]: 79.2%; viability, T/C [40]: 104%; viability, T/C [10]: 76.4%; viability, T/C [41]: 100%; viability, T/C [16]: 75.9%; viability, T/C [42]: 96.7%; viability, T/C [22]: 73.6%; viability, T/C [43]: 96.2%; viability, T/C [28]: 79%
CC1COCCN1c1cc(-c2ccnn2C)c2ccnc(-c3ccn[nH]3)c2n1 (centres undefined)	–	–	–	–	–	–	–	–	–	–	–	–	–	–	–	–	–	–	–	–	viability, T/C (compound 0.01 µM): 105% [middle of 5 runs]; viability, T/C (compound 0.0316 µM): 97.3% [middle of 5 runs]; viability, T/C (compound 0.1 µM): 90.8% [middle of 5 runs]; viability, T/C (compound 0.316 µM): 85.7% [middle of 5 runs]; viability, T/C (compound 1 µM): 72.1% [middle of 5 runs]; viability, T/C (compound 3.16 µM): 58.4% [middle of 5 runs]; IC50 (curve of compound): > 3.16 µM
CCN1CCN(Cc2ccc(Nc3ncc(F)c(-c4cc(F)c5nc(C)n(C(C)C)c5c4)n3)nc2)CC1 + C=CC(=O)N1CCN(c2nc(=O)n(-c3c(C)ccnc3C(C)C)c3nc(-c4c(O)cccc4F)c(F)cc23)C(C)C1	> 1 µM	> 1 µM	> 1 µM	> 1 µM	88.9%	96.4%	107%	95.4%	86.8%	91.2%	107%	98.3%	89.6%	98.7%	115%	105%	93.9%	90.7%	111%	102%	IC50 [5]: 0.947 µM; viability, T/C (second compound 0.1 µM, first compound 0.00316 µM): 105%; viability, T/C [40]: 96.2%; viability, T/C (second compound 0.316 µM, first compound 0.00316 µM): 106%; viability, T/C [41]: 105%; viability, T/C (second compound 1 µM, first compound 0.00316 µM): 104%; viability, T/C [42]: 107%; viability, T/C (second compound 3.16 µM, first compound 0.00316 µM): 108%; viability, T/C [43]: 107%; viability, T/C (second compound 10 µM, first compound 0.00316 µM): 101%; viability, T/C (second compound 10 µM, first compound 0.01 µM): 108%; viability, T/C [30]: 87.8%; viability, T/C [31]: 80.7%; viability, T/C [32]: 97.8%; viability, T/C [33]: 47.8%
COc1cc2nccc(Oc3ccc(NC(=O)C4(C(=O)Nc5ccc(F)cc5)CC4)cc3)c2cc1OC	–	–	–	–	–	–	–	–	–	–	–	–	–	–	–	–	–	–	–	–	viability, T/C (compound 0.0316 µM): 102% [middle of 5 runs]; viability, T/C (compound 0.1 µM): 97.5% [middle of 5 runs]; viability, T/C (compound 0.316 µM): 92.5% [middle of 5 runs]; viability, T/C (compound 1 µM): 88.5% [middle of 5 runs]; viability, T/C (compound 3.16 µM): 57.1% [middle of 5 runs]; viability, T/C (compound 10 µM): 67.7% [middle of 5 runs]; IC50 (curve of compound): > 10 µM
